Data as given in patent US20200253996A1, “TCTP INHIBITING AGENTS FOR THE TREATMENT OF PROLIFERATIVE DISEASES, INFECTIOUS DISEASES, ALLERGIES, INFLAMMATIONS AND/OR ASTHMA” (UNIVERSITE PARIS-SUD, priority 2017, published 2020).
Like-named read-outs stand apart in the source and are kept apart here.

How the values were obtained:
[1] = system: human cancer line HCT116 (colorectal carcinoma); assay: Cytotoxic activity on HCT116, 72 hours incubation; assay type: cell-based; settings: for % (viability) at 1 μM: HCT116, 1 μM; for % (viability) at 10 μM: HCT116, 10 μM; for antiproliferative activity profile (in words): compared with sertraline; for IC50: Homo sapiens, HCT-116, HCT116, 72 hours incubation, concentration inducing 50% cell death
Method: The cytotoxic activity of the prepared compounds was evaluated on the human cancer line HCT116 (colorectal carcinoma). The selected line was incubated at 37° C. in the presence of one of the prepared compounds added to the culture medium at various concentrations. The inhibitory concentration inducing 50% cell death (IC50) was determined after 72 hours incubation for each compound (Table 1).

TCTP = molecular target: T1, TCTP (Homo sapiens, UniProt P13693); assay: Interaction with TCTP by surface plasmon resonance (SPR), Biacore T200; assay type: binding; settings: for Kd: TCTP bonded to chip, Biacore T200
T1 sequence (P13693 1-172): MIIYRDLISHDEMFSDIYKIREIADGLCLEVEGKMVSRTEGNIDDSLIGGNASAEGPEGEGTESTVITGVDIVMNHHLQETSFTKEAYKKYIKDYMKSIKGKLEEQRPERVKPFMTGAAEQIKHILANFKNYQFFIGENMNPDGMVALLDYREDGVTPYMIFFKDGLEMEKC
Method: The interaction of the synthesized molecules with TCTP was evaluated by the surface plasmon resonance (SPR) technique using the Biacore T200 apparatus.
A beam of polarized monochromatic light illuminates a glass interface between two media with different refractive indices, since the angle of incidence is greater than the limiting angle, all the light is reflected, a phenomenon known as total internal reflection. There is then no refraction but an electromagnetic component of the light, the evanescent wave propagates over a distance equivalent to its own wavelength, perpendicular to the interface. At the level of the gold leaf located at the interface between the two media, a resonance between the gold plasmons and the evanescent wave is observed, which results in a loss of light energy in the beam reflected at a precise angle called the resonance angle. This angle is sensitive to the refractive index of the medium wherein the evanescent wave propagates.
A continuous measurement of the variations in the angle of refraction is carried out using a micro-refractometer producing a sensorgram that allows the fixation of the molecules injected into the microfluidic cell to be monitored in real time. The resonance signal is expressed in resonance units (RU) and reports what is present at a given time in the microfluidic cell.
Thus, TCTP is bonded to a chip consisting of a layer of dextran on a gold foil, which in turn is placed on a glass plate. This layer is sandwiched between a microfluidic cell and a prism.
The synthesized compounds are passed through the microfluidic cell and their interaction is evaluated through the received SPR signal (Table 1).

human HCT116 cells = assay: Inhibition of cell growth, CellTiter Glo assay; settings: for GI50 / CC50: Homo sapiens
Method: The viability and proliferation of human HCT116 cells is measured using the “CellTiter Glo®” assay (Promega), which is a luminescent measure of the number of living cells. Sertraline and AC070 were tested at 10 concentrations and results are expressed as GI50, TGI, LC50 and IC50 relative to control cells (DMSO).
The CellTiter-Glo® assay is a homogeneous method for determining the number of viable cells in culture based on a quantification of the ATP present, an indicator of metabolically active cells. The homogeneous test procedure involves the addition of a single reagent (the CellTiter-Glo® reagent) directly to the cultured cells in serum-enriched medium.
The results of the test are reported in the following Tables 2 and 3 (Table 2: sertraline and Table 3: AC070): […]

p53 protein = assay: Overexpression of p53 protein, Western blot; assay type: cell-based; settings: 10 μM
Method: The compound AC014 is capable of inducing overexpression of p53 (FIG. 1).
The Western blot was carried out according to the protocol described in the following article: Amson R, Pece S, Lespagnol A, Vyas R, Mazzarol G, Tosoni D, Colaluca I, Viale G, Rodrigues-Ferreira S, Wynendaele J, Chaloin O, Hoebeke J, Marine J C, Di Fiore P P, Telerman A. Nat Med. 2011 Dec. 11; 18(1):91-9.
The following antibodies were used in the Western blot assay: anti-TCTP antibodies were generated against the whole human-derived TCTP. These polyclonal antibodies were purified by affinity column affinity coupled to TCTP (Agro-Bio). Anti-P53 1C12 mouse antibody (Cell Signaling Technology) was used at a dilution of 1/1000.
Secondary antibodies (antirabbit and antimouse) conjugated to HRP were used at a dilution of 1/5000 to visualize the signals by Western blots.

SMILES	% (viability) at 10 μM [1]	Kd (TCTP)	antiproliferative activity profile (in words) [1]	affinity for TCTP (in words) (TCTP)	IC50 [1]	other results
c1ccc2c(c1)CCCC2c1ccc2[nH]ccc2c1 (centres unmarked) [AC082, 5-(1,2,3,4-tetrahydronaphthalen-1-yl)-1H-indole]	33%	123 ± 33 µM	–	–	–	% (viability) at 1 μM [1]: 9 ± 1%
CC(=O)NC1CCC(c2ccc3ccccc3c2)c2ccccc21 (centres unmarked) [AC070, N-(1,2,3,4-tetrahydro-[1,2′-binaphthalen]-4-yl) acetamide]	–	–	–	–	–	cytotoxicity compared with sertraline (human HCT116 cells): less cytotoxic than sertraline; activity on cell growth compared with sertraline (human HCT116 cells; HCT116): slightly less active than sertraline; TGI50 1 (human HCT116 cells; HCT116, CellTiter Glo, determination 1): 1.48 µM; TGI50 2 (human HCT116 cells; HCT116, CellTiter Glo, determination 2): 1.44 µM; TGI50 3 (human HCT116 cells; HCT116, CellTiter Glo, determination 3): 1.41 µM; TGI50 Mean (human HCT116 cells; HCT116, CellTiter Glo, mean): 1.44 µM; TGI50 Median (human HCT116 cells; HCT116, CellTiter Glo, median): 1.44 µM; GI50 (human HCT116 cells; HCT-116, read-out: GI50 1): 0.909 µM; GI50 (human HCT116 cells; HCT-116, read-out: GI50 2): 0.881 µM; GI50 (human HCT116 cells; HCT-116, read-out: GI50 3): 0.878 µM; GI50 (human HCT116 cells; HCT-116, read-out: GI50 Mean): 0.89 µM; GI50 (human HCT116 cells; HCT-116, read-out: GI50 Median): 0.889 µM; CC50 (human HCT116 cells; HCT-116, read-out: LC50 1): 2.34 µM; CC50 (human HCT116 cells; HCT-116, read-out: LC50 2): 2.3 µM; CC50 (human HCT116 cells; HCT-116, read-out: LC50 3): 2.2 µM; CC50 (human HCT116 cells; HCT-116, read-out: LC50 Mean): 2.28 µM; CC50 (human HCT116 cells; HCT-116, read-out: LC50 Median): 2.28 µM; GI50 (human HCT116 cells; HCT-116, read-out: cell growth inhibition constant GI50): 0.889 µM; CC50 (human HCT116 cells; HCT-116, read-out: lethal concentration LC50): 2.2 µM
Clc1ccc(C2CCCc3ccccc32)cc1Cl (centres unmarked) [AC096, 1-(3,4-dichlorophenyl)-1,2,3,4-tetrahydronaphthalene]	–	14 ± 7 µM	identical to that of sertraline	excellent affinity	–	% (viability) at 1 μM [1]: 1 μM: 29 ± 3%.
CC(=O)N[C@@H]1CC[C@H](c2ccc(C(=O)NC3OC(COC(C)=O)C(OC(C)=O)C(OC(C)=O)C3OC(C)=O)cc2)c2ccccc21 (stereo in doubt) [VM060-cis, Cis-(2R,3R,4S,5R,6R)-2-(4-acetamido-1,2,3,4-tetrahydronaphthalen-1-yl)benzamido)-6-(acetoxy-methyl)tetrahydro-2H-pyran-3,4,5-triyl triacetate]	10 μM: 15% (viability)	26 ± 8 µM	–	–	–	–
CC(=O)N[C@@H]1CC[C@H](c2ccc(C(=O)OC(C)C)cc2)c2ccccc21 (relative stereo) [AC056, Cis-isopropyl 4-(4-acetamido-1,2,3,4-tetrahydronaphthalen-1-yl)benzoate]	–	28.5 ± 10 µM	identical to that of sertraline	excellent affinity	17 ± 3 µM	–
c1ccc2c(c1)SCCC2c1ccc2ccccc2c1 (centres unmarked) [AC085, 4-(naphthalen-2-yl)thiochroman]	–	30 µM	identical to that of sertraline	excellent affinity	25 ± 1 µM	–
CC(=O)NC1CCC(c2cc(SC3OC(COC(C)=O)C(OC(C)=O)C(OC(C)=O)C3OC(C)=O)c(C(=O)Nc3cccc4cccnc34)c(S[C@@H]3OC(COC(C)=O)[C@@H](OC(C)=O)C(OC(C)=O)C3OC(C)=O)c2)c2ccccc21 (stereo in doubt) [AC249-cis, Cis-(2S,3R,4S,5R,6R)-2-((5-((4S)-4-acetamido-1,2,3,4-tetrahydronaphthalen-1-yl)-2-(quinolin-8-ylcarbamoyl)-3-(((2R,3S,4R,5S,6S)-3,4,5-triacetoxy-6-(acetoxymethyl)tetrahydro-2H-pyran-2-yl)thio)phenyl)thio)-6-(acetoxymethyl)tetrahydro-2H-pyran-3,4,5-triyl triacetate]	–	8 ± 2 µM	–	–	–	–
c1ccc2c(c1)OCCC2c1ccc2ccccc2c1 (centres unmarked) [AC069, 4-(naphthalen-2-yl)chroman]	33%	24 ± 16 µM	identical to that of sertraline	excellent affinity	–	% (viability) at 1 μM [1]: 0%
COc1ccc2c(c1)CCCC2c1ccc(Cl)c(Cl)c1 (centres unmarked) [AC095, 1-(3,4-dichlorophenyl)-6-methoxy-1,2,3,4-tetrahydronaphthalene]	10 μM: 40% (viability)	150 µM	–	–	–	–
CC(C)OC(=O)c1ccc(C2CCCc3ccccc32)cc1 (centres unmarked) [AC034, Isopropyl 4-(1,2,3,4-tetrahydronaphthalen-1-yl)benzoate]	–	29 ± 7 µM	identical to that of sertraline	excellent affinity	25 ± 9 µM	–
CC(=O)NC1CCC(c2cccc(I)c2)c2ccccc21 (mixture of isomers) [AC087, N-(4-(3-iodophenyl)-1,2,3,4-tetrahydronaphthalen-1-yl)acetamide]	10 μM: 33% (viability)	16 ± 11 µM	identical to that of sertraline	excellent affinity	–	–
CC(=O)NC1CCC(c2ccc(Br)cc2)c2ccccc21 (mixture of isomers) [AC088, N-(4-(4-bromophenyl)-1,2,3,4-tetrahydronaphthalen-1-yl)acetamide]	10 μM: 33% (viability)	135 ± 37 µM	–	–	–	–
Ic1cccc(C2CCCc3ccccc32)c1 (centres unmarked) [AC041, 1-(3-iodophenyl)-1,2,3,4-tetrahydronaphthalene]	–	59 ± 30 µM	identical to that of sertraline	excellent affinity	9 ± 1.2 µM	–
CC(=O)NC1CCC(c2cccc(S[C@@H]3OC(COC(C)=O)[C@@H](OC(C)=O)C(OC(C)=O)C3OC(C)=O)c2)c2ccccc21 (stereo in doubt) [AC268-cis, Cis-(2S,3R,4S,5R,6R)-2-((3-((4S)-4-acetamido-1,2,3,4-tetrahydronaphthalen-1-yl)phenyl)thio)-6-(acetoxymethyl)tetrahydro-2H-pyran-3,4,5-triyl triacetate]	–	170 ± 31 µM	–	–	–	–
COc1ccc2c(c1)CCCC2c1cccc(Cl)c1 (centres unmarked) [AC101, 1-(3-chlorophenyl)-6-methoxy-1,2,3,4-tetrahydronaphthalene]	–	145 ± 34 µM	–	–	7 ± 0.4 µM	–
c1ccc2c(c1)CCCC2c1ccc2ccccc2c1 (centres unmarked) [AC014, 1,2,3,4-tetrahydro-1,2′-binaphthalene]	–	7 ± 3 µM	identical to that of sertraline	excellent affinity	8 ± 1 µM	expression of the p53 protein (p53 protein): induces; induction of p53 compared to sertraline (p53 protein): more pronounced
CC(=O)N[C@@H]1CC[C@H](c2ccc(C(=O)O)cc2)c2ccccc21 (relative stereo) [VM055-cis, Cis-4-(4-acetamido-1,2,3,4-tetrahydronaphthalen-1-yl)benzoic acid]	–	176 µM	–	–	–	–
